{"source": "paper PMC4701221", "about": "“Novel Promising Estrogenic Receptor Modulators: Cytotoxic and Estrogenic Activity of Benzanilides and Dithiobenzanilides” (PLoS ONE, 2016)", "key": {"MDA-MB-231 cells": {"tested_on": "MDA-MB-231 cells", "experiment": "LDH release assay, MDA-MB-231", "assay_type": "cell-based, human", "conditions": "72 h, Fig 2", "method": "Cytotoxicity was evaluated by measuring the cell membrane permeability, using a LDH assay kit purchased from Cayman Chemical (Ann Arbor USA). The LDH assay was performed for MCF-7 and MDA-MB-231 cells (seeded at 2×10^4 density). As a positive control cell permeabilization with 1%Triton X-100 was used. The assay was performed 72h after start the incubation. Briefly, the plates were centrifuged at 400 ×g for 5 minutes, and 100 μL of supernatant were transferred from each well to the new 96-well plate and analyzed according to the manufacturer’s protocol. 100 μL of reaction mixture, containing lactic acid, NAD^+, tetrazolium salt and diaphorase, was added to each well. Plates were incubated on an orbital shaker for 30 minutes at room temperature and the absorbance at 490 nm was measured with a plate reader (Biotek Instruments, Elx-800). Results were expressed as a percentage of the total value of the positive control."}, "[1]": {"tested_on": "ERα W383S transfected HEK293 cells", "experiment": "MTT cell viability, ERα W383S transfected HEK293 cells", "assay_type": "cell-based, human", "conditions": "0–100 μM, 72 h, compared to wild type ERα, Fig 6B", "method": "Compounds were dissolved in DMSO to the final concentration of 100 μM. A549, CCD39Lu, MCF-7, MDA-MB-231 and MCF-12A cells were seeded in 96 wells plates at density 2x10^4 cells/well and incubated overnight as described above. Subsequently, cells were treated with tested compounds at concentrations: 100 μM; 50 μM; 25μM; 12.5μM; 6 μM; 3 μM; 1.5 μM. […] Cells were incubated 72 h at 37°C in a humidified atmosphere containing 5% CO2 in the cell culture media appropriate for each cell line. Then, the medium was aspirated and 170 μl MTT solution (5mg/ml) was added to each well. Plates were incubated for 2 hours at 37°C, and then plates were centrifuged at 1200 rpm for 3 minutes. […] Absorbance at 570 nm (with reference wavelenght 650 nm) was measured using a plate reader (Biotek Instruments, Elx-800). Cell viability was calculated as a percentage relative to the control.\nFig 6 Estrogenic and cytotoxic activity of tested compounds in HEK293 cells transfected with wild type ERα receptor or plasmids bearing mutated versions of ERα. […] Results are expressed as mean ± SEM (n = 8). * p < 0.05 was considered statistically significant. […] 48 h after transfection, cells were incubated in the presence of increasing concentrations of compounds 18 for 72 h and cell viability was measured by MTT assay. […]"}, "ERα W383S": {"target": "T1, ERα W383S (Homo sapiens, UniProt P03372, W383S)", "T1 construct": "expressed in transfected cells; host or cells: HEK293", "T1 sequence (P03372 1-595 W383S)": "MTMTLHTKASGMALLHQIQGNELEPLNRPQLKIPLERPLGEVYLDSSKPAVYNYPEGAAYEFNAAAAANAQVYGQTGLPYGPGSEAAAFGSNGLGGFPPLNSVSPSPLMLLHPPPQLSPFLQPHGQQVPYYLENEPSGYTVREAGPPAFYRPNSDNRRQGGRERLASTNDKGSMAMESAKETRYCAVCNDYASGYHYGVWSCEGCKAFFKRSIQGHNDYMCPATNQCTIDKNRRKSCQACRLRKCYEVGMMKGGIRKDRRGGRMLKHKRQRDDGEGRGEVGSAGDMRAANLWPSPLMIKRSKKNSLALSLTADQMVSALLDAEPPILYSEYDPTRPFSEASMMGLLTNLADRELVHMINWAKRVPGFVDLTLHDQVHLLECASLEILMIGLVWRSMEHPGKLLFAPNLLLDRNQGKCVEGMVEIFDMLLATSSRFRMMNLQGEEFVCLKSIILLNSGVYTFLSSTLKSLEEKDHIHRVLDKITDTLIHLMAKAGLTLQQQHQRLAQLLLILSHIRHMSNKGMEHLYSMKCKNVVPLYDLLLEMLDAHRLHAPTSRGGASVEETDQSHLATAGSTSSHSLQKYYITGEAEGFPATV", "experiment": "Estrogen Receptor luciferase assay in HEK293 cells transfected with ERα W383S", "assay_type": "cell-based", "conditions": "HEK293, Fig 6A", "source_text": "To obtain a eukaryotic vector expressing only the ER-α nuclear receptor, a construct was designed by cloning a KpnI-BamHI fragment from plasmid pEGFP-C1-ERα containing the ERα coding sequence that includes a stop signal into the pEGFP-N3 plasmid (Clontech Laboratories, Palo Alto, CA) under the control of the CMV promoter. […] For mock transfections, pEGFP-N3 plasmid was digested with BglII and NotI and religated after polishing DNA ends to remove GFP coding sequence. Plasmid sequence was confirmed by automatic sequencing. Prior to transfection, cells were seeded in 48 well plates at density of 1.5 x 10^4 cells/well and incubated for 24 h to reach a cell confluence of 80–90%. […] MCF-7 cells, which endogenously express ERα receptor, were transfected with p3xERRE/ERE-luciferase plus the pRLTK Renilla luciferase control plasmid (95:5). Firefly and Renilla luciferase activities were measured using the Dual Luciferase Assay System (Promega, Madison, WI, USA), following a standard protocol using a Sirius L luminometer (Berthold Technologies, Bad Wildbad, Germany). Data were expressed as relative changes in luciferase activity and normalized to 100%.\nPlasmids for the expression of the ERα W383A and ER-α W383S mutated receptors were constructed by the quick change site directed mutagenesis method using plasmid pEGFP-N-ERα as template."}}}
{"smiles": "Fc1ccc(NC(=S)c2ccc(NC(=S)c3ccc(F)cc3)cc2)cc1", "note": "[Compound 18]", "values": [{"measurement": "LDH release, MDA-MB-231", "setting": "MDA-MB-231 cells", "value": "non-significant effects"}, {"measurement": "Cell viability, ERα W383S transfected HEK293", "setting": "[1]", "value": "decrease was significantly smaller"}, {"measurement": "Activation of ER dependent transcription, ERα W383S vs wild type", "setting": "ERα W383S", "value": "less active"}]}
